Results: patent US6706663B2, “Herbicidal 3-heterocyclic substituted benzisothiazole and benzisoxazole compounds” (Wyeth, priority 2000, dated 2004)

Columns and labels:
[1] = system: SAGPY (Sagittaria pygmaea); test: Flooded paddy, postemergence weed control; assay type: in vivo, L.; conditions: postemergence weeds, rated 3-4 weeks after treatment
Text: (§1) Results of herbicide evaluation are expressed on a rating scale (0-9). The scale is based upon a visual observation of plant stand, vigor, malformation, size, chlorosis and overall plant appearance as compared with a control.
(§2) Plastic containers containing weeds which are 3 to 5 cm tall and rice seedlings at the 1.5 to 2.5 leaf stage are flooded with water. The water is maintained at 1.5 to 3 cm above the soil surface for the duration of the experiment. Test compounds are applied as aqueous/acetone mixtures 50/50 v/v directly into the flood water to provide the equivalent of about 0.0320 to 0.2500 kg/ha of active ingredient. The treated containers are placed on greenhouse benches and cared for in accordance with conventional greenhouse procedures. Three to four weeks after treatment, the test is terminated and each container is examined and herbicidal effect rated according to the rating system provided in Example 87. The compounds evaluated are identified in Example 87 and plant species used are identified in Example 89.

[2] = system: IPOHE (Ipomoea hederacea); test: Preemergence herbicidal evaluation; assay type: in vivo, (L.) Jacq.; conditions: preemergence, rated 4-5 weeks after treatment
GALAP (Galium aparine) = test: Postemergence herbicidal evaluation; assay type: in vivo
Summary of the method: (§3)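 Visual 0–9 injury scores versus control plants, covering stand, vigour, malformation, size, chlorosis and general appearance, taken four to five weeks post-spray and averaged over replicate tests. Plants were sprayed at roughly two weeks old and held on greenhouse benches.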

[3] = system: MOOVA (Monochoria vaginalis); test: Flooded paddy, postemergence weed control; assay type: in vivo, Presl.; conditions: postemergence weeds, rated 3-4 weeks after treatment
Text: as §1, §2

ZEAMX (Corn, Field) = test: Preemergence herbicidal evaluation; assay type: in vivo, Zea mays, L.; conditions: preemergence, rated 4-5 weeks after treatment
[4] = system: SAGPY (Sagittaria pygmaea); test: Flooded paddy, preemergence weed control; assay type: in vivo, L.; conditions: rated 3-4 weeks after treatment, 0-9 rating scale
Summary of the method: (§4)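 Seeds or propagules were planted in the top 0.5 cm of silt loam soil and kept flooded 1.5–3 cm above the surface throughout, then held in the greenhouse. Injury was rated visually on a 0–9 scale against untreated controls, covering stand, vigor, malformation, size and chlorosis.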

CYPIR (Cyperus iria) [5] = test: Flooded paddy, preemergence weed control; assay type: in vivo; conditions: rated 3-4 weeks after treatment, 0-9 rating scale
Summary of the method: as §4

[6] = system: CYPSE (Cyperus serotinus); test: Flooded paddy, postemergence weed control; assay type: in vivo, Rottb.; conditions: postemergence weeds, rated 3-4 weeks after treatment
Text: as §1, §2

ORYSAT (Rice, Tebonnet) [7] = test: Flooded paddy, post-transplant rice tolerance; assay type: in vivo, Oryza sativa, (L.) Tebonnet; conditions: flooded paddy, post-transplant rice, rated 3-4 weeks after treatment, 0-9 rating scale
Summary of the method: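 Seedlings aged ten days are transplanted in pairs into undrained pots of silt loam, which are then flooded to a depth of 1.5 to 3 cm. After herbicide application the pots are kept in a greenhouse with the flood maintained. Plants are rated 0-9 by visual comparison with controls.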

ORYSAT (Rice, Tebonnet) [8] = test: Flooded paddy, post-transplant and postemergence rice tolerance; assay type: in vivo, Oryza sativa, (L.) Tebonnet; conditions: post-transplant rice, rated 3-4 weeks after treatment
Text: as §1, §2

[9] = system: ECHORC (Echinochloa oryzoides); test: Flooded paddy, postemergence weed control; assay type: in vivo, Echinochloa oryzoides (Ard.) Fritsch.; conditions: postemergence weeds, rated 3-4 weeks after treatment
Text: as §1, §2

[10] = system: ABUTH (Abutilon theophrasti); test: Postemergence herbicidal evaluation; assay type: in vivo, Medic.
Summary of the method: as §3

[11] = system: AMBEL (Ambrosia artemisifolia); test: Postemergence herbicidal evaluation; assay type: in vivo, L.
Summary of the method: as §3

[12] = system: CASOB (Cassia obtusifolia); test: Postemergence herbicidal evaluation; assay type: in vivo, L.
Summary of the method: as §3

[13] = system: CHEAL (Chenopodium album); test: Postemergence herbicidal evaluation; assay type: in vivo, L.
Summary of the method: as §3

CYPIR (Cyperus iria) [14] = test: Flooded paddy, postemergence weed control; assay type: in vivo; conditions: postemergence weeds, rated 3-4 weeks after treatment
Text: as §1, §2

[15] = system: GLXMAW (Soybean, Williams); test: Preemergence herbicidal evaluation; assay type: in vivo, Glycine max, (L.) Merr. cv Williams; conditions: preemergence, rated 4-5 weeks after treatment

## Cn1c(C(F)(F)F)cc(=O)n(-c2ccc3snc(-c4ncccn4)c3c2)c1=O [Compound 12, 1-methyl-3-[3-(2-pyrimidinyl)-1,2-benzisothiazol-5-yl]-6-(trifluoromethyl)uracil]
[1]; 0.1250 kg/ha into flood water
  herbicide rating (0-9) SAGPY: 0.0
[2]; Rate 0.2500 kg/ha
  IPOHE preemergence herbicidal rating: 9.0
GALAP (Galium aparine); rate 0.0620 kg/ha
  Postemergence herbicidal rating, GALAP: 9.0
[3]; 0.1250 kg/ha into flood water
  herbicide rating (0-9) MOOVA: 2.0
ZEAMX (Corn, Field); Rate 0.2500 kg/ha
  ZEAMX preemergence herbicidal rating: 8.5
[4]; rate 0.1250 kg/ha
  herbicidal rating, SAGPY: 3.7
CYPIR (Cyperus iria) [5]; rate 0.1250 kg/ha
  herbicidal rating, CYPIR: 9.0
[6]; 0.1250 kg/ha into flood water
  herbicide rating (0-9) CYPSE: 0.0
ORYSAT (Rice, Tebonnet) [7]; rate 0.1250 kg/ha
  herbicidal rating, ORYSAT (rice tolerance): 7.0
ORYSAT (Rice, Tebonnet) [8]; 0.1250 kg/ha into flood water
  herbicide rating (0-9) ORYSAT (rice tolerance): 2.0
[9]; 0.1250 kg/ha into flood water
  herbicide rating (0-9) ECHORC: 1.0
[10]; rate 0.0620 kg/ha
  Postemergence herbicidal rating, ABUTH: 9.0
[11]; rate 0.0620 kg/ha
  Postemergence herbicidal rating, AMBEL: 9.0
[12]; rate 0.0620 kg/ha
  Postemergence herbicidal rating, CASOB: 9.0
[13]; rate 0.0620 kg/ha
  Postemergence herbicidal rating, CHEAL: 9.0
CYPIR (Cyperus iria) [14]; 0.1250 kg/ha into flood water
  herbicide rating (0-9) CYPIR: 9.0
[15]; Rate 0.2500 kg/ha
  GLXMAW preemergence herbicidal rating: 9.0

## Cc1ccc(-c2nsc3ccc(-n4c(=O)cc(C(F)(F)F)n(C)c4=O)cc23)s1 [Compound 21, 1-methyl-3-[3-(5-methyl-2-thienyl)-1,2-benzisothiazol-5-yl]-6-(trifluoromethyl)uracil]
[1]; 0.0320 kg/ha into flood water
  herbicide rating (0-9) SAGPY: 0.0
[1]; 0.0620 kg/ha into flood water
  herbicide rating (0-9) SAGPY: 0.0
[1]; 0.1250 kg/ha into flood water
  herbicide rating (0-9) SAGPY: 0.0
[2]; Rate 0.0620 kg/ha
  IPOHE preemergence herbicidal rating: 0.0
[2]; Rate 0.1250 kg/ha
  IPOHE preemergence herbicidal rating: 2.0
[2]; Rate 0.2500 kg/ha
  IPOHE preemergence herbicidal rating: 5.0
GALAP (Galium aparine); rate 0.0320 kg/ha
  Postemergence herbicidal rating, GALAP: 1.0
GALAP (Galium aparine); rate 0.0620 kg/ha
  Postemergence herbicidal rating, GALAP: 4.0
GALAP (Galium aparine); rate 0.1250 kg/ha
  Postemergence herbicidal rating, GALAP: 9.0
[3]; 0.0320 kg/ha into flood water
  herbicide rating (0-9) MOOVA: 9.0
[3]; 0.0620 kg/ha into flood water
  herbicide rating (0-9) MOOVA: 9.0
[3]; 0.1250 kg/ha into flood water
  herbicide rating (0-9) MOOVA: 9.0
ZEAMX (Corn, Field); Rate 0.0620 kg/ha
  ZEAMX preemergence herbicidal rating: 1.0
ZEAMX (Corn, Field); Rate 0.1250 kg/ha
  ZEAMX preemergence herbicidal rating: 3.5
ZEAMX (Corn, Field); Rate 0.2500 kg/ha
  ZEAMX preemergence herbicidal rating: 4.5
[4]; rate 0.0080 kg/ha
  herbicidal rating, SAGPY: 0.0
[4]; rate 0.0320 kg/ha
  herbicidal rating, SAGPY: 0.0
[4]; rate 0.1250 kg/ha
  herbicidal rating, SAGPY: 6.0
CYPIR (Cyperus iria) [5]; rate 0.0080 kg/ha
  herbicidal rating, CYPIR: 4.0
CYPIR (Cyperus iria) [5]; rate 0.0320 kg/ha
  herbicidal rating, CYPIR: 9.0
CYPIR (Cyperus iria) [5]; rate 0.1250 kg/ha
  herbicidal rating, CYPIR: 9.0
[6]; 0.0320 kg/ha into flood water
  herbicide rating (0-9) CYPSE: 0.0
[6]; 0.0620 kg/ha into flood water
  herbicide rating (0-9) CYPSE: 0.0
[6]; 0.1250 kg/ha into flood water
  herbicide rating (0-9) CYPSE: 0.0
ORYSAT (Rice, Tebonnet) [7]; rate 0.0080 kg/ha
  herbicidal rating, ORYSAT (rice tolerance): 0.0
ORYSAT (Rice, Tebonnet) [7]; rate 0.0320 kg/ha
  herbicidal rating, ORYSAT (rice tolerance): 2.0
ORYSAT (Rice, Tebonnet) [7]; rate 0.1250 kg/ha
  herbicidal rating, ORYSAT (rice tolerance): 3.0
ORYSAT (Rice, Tebonnet) [8]; 0.0320 kg/ha into flood water
  herbicide rating (0-9) ORYSAT (rice tolerance): 4.0
ORYSAT (Rice, Tebonnet) [8]; 0.0620 kg/ha into flood water
  herbicide rating (0-9) ORYSAT (rice tolerance): 7.0
ORYSAT (Rice, Tebonnet) [8]; 0.1250 kg/ha into flood water
  herbicide rating (0-9) ORYSAT (rice tolerance): 7.0
[9]; 0.0320 kg/ha into flood water
  herbicide rating (0-9) ECHORC: 6.0
[9]; 0.0620 kg/ha into flood water
  herbicide rating (0-9) ECHORC: 9.0
[9]; 0.1250 kg/ha into flood water
  herbicide rating (0-9) ECHORC: 9.0
[10]; rate 0.0320 kg/ha
  Postemergence herbicidal rating, ABUTH: 9.0
[10]; rate 0.0620 kg/ha
  Postemergence herbicidal rating, ABUTH: 9.0
[10]; rate 0.1250 kg/ha
  Postemergence herbicidal rating, ABUTH: 9.0
[11]; rate 0.0320 kg/ha
  Postemergence herbicidal rating, AMBEL: 9.0
[11]; rate 0.0620 kg/ha
  Postemergence herbicidal rating, AMBEL: 9.0
[11]; rate 0.1250 kg/ha
  Postemergence herbicidal rating, AMBEL: 9.0
[12]; rate 0.0320 kg/ha
  Postemergence herbicidal rating, CASOB: 2.0
[12]; rate 0.0620 kg/ha
  Postemergence herbicidal rating, CASOB: 4.0
[12]; rate 0.1250 kg/ha
  Postemergence herbicidal rating, CASOB: 7.0
[13]; rate 0.0320 kg/ha
  Postemergence herbicidal rating, CHEAL: 7.0
[13]; rate 0.0620 kg/ha
  Postemergence herbicidal rating, CHEAL: 9.0
[13]; rate 0.1250 kg/ha
  Postemergence herbicidal rating, CHEAL: 9.0
CYPIR (Cyperus iria) [14]; 0.0320 kg/ha into flood water
  herbicide rating (0-9) CYPIR: 9.0
CYPIR (Cyperus iria) [14]; 0.0620 kg/ha into flood water
  herbicide rating (0-9) CYPIR: 9.0
CYPIR (Cyperus iria) [14]; 0.1250 kg/ha into flood water
  herbicide rating (0-9) CYPIR: 9.0
[15]; Rate 0.0620 kg/ha
  GLXMAW preemergence herbicidal rating: 0.0
[15]; Rate 0.1250 kg/ha
  GLXMAW preemergence herbicidal rating: 0.0
[15]; Rate 0.2500 kg/ha
  GLXMAW preemergence herbicidal rating: 2.0
